Measured values as given in PubChem BioAssay (NCI).
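Protocol summary: plate cells (96-well), add compound at 5 concentrations, incubate 48 h, interpolate endpoints linearly. The concentration for 50% growth inhibition is given as GI50. TGI is the concentration that stops growth completely.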

How the values were obtained:
Test in all cases: inhibition of tumour cell growth, NCI panel, 48 h
786-0 renal = system: 786-0 renal
A498 renal = system: A498 renal
A549 NSCLC = system: A549 NSCLC
ACHN renal = system: ACHN renal
BT-549 breast = system: BT-549 breast
CAKI-1 renal = system: CAKI-1 renal
CCRF-CEM leukemia = system: CCRF-CEM leukemia
COLO 205 colon = system: COLO 205 colon
DU-145 prostate = system: DU-145 prostate
EKVX NSCLC = system: EKVX NSCLC
HCC-2998 colon = system: HCC-2998 colon
HCT-116 colon = system: HCT-116 colon
HCT-15 colon = system: HCT-15 colon
HL-60(TB) leukemia = system: HL-60(TB) leukemia
HOP-62 NSCLC = system: HOP-62 NSCLC
HOP-92 NSCLC = system: HOP-92 NSCLC
HS 578T breast = system: HS 578T breast
HT29 colon = system: HT29 colon
IGROV1 ovarian = system: IGROV1 ovarian
K-562 leukemia = system: K-562 leukemia
KM12 colon = system: KM12 colon
LOX IMVI melanoma = system: LOX IMVI melanoma
M14 melanoma = system: M14 melanoma
MALME-3M melanoma = system: MALME-3M melanoma
MCF7 breast = system: MCF7 breast
MDA-MB-231 breast = system: MDA-MB-231 breast
MDA-MB-435 = system: MDA-MB-435
MDA-MB-468 breast = system: MDA-MB-468 breast
MOLT-4 leukemia = system: MOLT-4 leukemia
NCI-H226 lung = system: NCI-H226 lung

CN1CCN(Cc2ccc(C(=O)Nc3cccc(C#Cc4cccc5[nH]nc(N)c45)c3)cc2C(F)(F)F)CC1
GI50 (786-0 renal): 1280 nM
TGI (786-0 renal): 2610 nM
GI50 (A498 renal): 2380 nM
TGI (A498 renal): 3950 nM
GI50 (A549 NSCLC): 721 nM
TGI (A549 NSCLC): 2010 nM
GI50 (ACHN renal): 409 nM
TGI (ACHN renal): 1400 nM
GI50 (BT-549 breast): 1800 nM
TGI (BT-549 breast): 4060 nM
GI50 (CAKI-1 renal): 1160 nM
TGI (CAKI-1 renal): 2370 nM
GI50 (CCRF-CEM leukemia): 1170 nM
TGI (CCRF-CEM leukemia): 3330 nM
GI50 (COLO 205 colon): 862 nM
TGI (COLO 205 colon): 2210 nM
GI50 (DU-145 prostate): 1200 nM
TGI (DU-145 prostate): 2460 nM
GI50 (EKVX NSCLC): 1090 nM
TGI (EKVX NSCLC): 2300 nM
GI50 (HCC-2998 colon): 880 nM
TGI (HCC-2998 colon): 2190 nM
GI50 (HCT-116 colon): 420 nM
TGI (HCT-116 colon): 1620 nM
GI50 (HCT-15 colon): 648 nM
TGI (HCT-15 colon): 1780 nM
GI50 (HL-60(TB) leukemia): 278 nM
TGI (HL-60(TB) leukemia): 1600 nM
GI50 (HOP-62 NSCLC): 1470 nM
TGI (HOP-62 NSCLC): 2890 nM
GI50 (HOP-92 NSCLC): 285 nM
TGI (HOP-92 NSCLC): 1400 nM
GI50 (HS 578T breast): 1330 nM
TGI (HS 578T breast): 4640 nM
GI50 (HT29 colon): 603 nM
TGI (HT29 colon): 1940 nM
GI50 (IGROV1 ovarian): 387 nM
TGI (IGROV1 ovarian): 1440 nM
TGI (K-562 leukemia): 1020 nM
GI50 (KM12 colon): 1410 nM
TGI (KM12 colon): 2930 nM
GI50 (LOX IMVI melanoma): 469 nM
TGI (LOX IMVI melanoma): 1610 nM
GI50 (M14 melanoma): 420 nM
TGI (M14 melanoma): 1650 nM
GI50 (MALME-3M melanoma): 284 nM
TGI (MALME-3M melanoma): 1200 nM
GI50 (MCF7 breast): 1510 nM
TGI (MCF7 breast): 2900 nM
GI50 (MDA-MB-231 breast): 401 nM
TGI (MDA-MB-231 breast): 1730 nM
GI50 (MDA-MB-435): 1090 nM
TGI (MDA-MB-435): 2450 nM
GI50 (MDA-MB-468 breast): 760 nM
TGI (MDA-MB-468 breast): 2080 nM
GI50 (MOLT-4 leukemia): 494 nM
TGI (MOLT-4 leukemia): 2280 nM
GI50 (NCI-H226 lung): 1000 nM
